“Also recorded” adds a separate entry of the source.
Legend:
[1] = biological target: T1, Nox5 (Homo sapiens, UniProt Q96PH1); experiment: O2- production by lysates of HEK293 cells stably transfected with Nox5 oxidase, Ca2+-stimulated (cytochrome c); format: cell-based; details: 0.1 nM to 10,000 nM
T1 construct: expressed in transfected cells; cell lysates
T1 sequence (Q96PH1 1-765): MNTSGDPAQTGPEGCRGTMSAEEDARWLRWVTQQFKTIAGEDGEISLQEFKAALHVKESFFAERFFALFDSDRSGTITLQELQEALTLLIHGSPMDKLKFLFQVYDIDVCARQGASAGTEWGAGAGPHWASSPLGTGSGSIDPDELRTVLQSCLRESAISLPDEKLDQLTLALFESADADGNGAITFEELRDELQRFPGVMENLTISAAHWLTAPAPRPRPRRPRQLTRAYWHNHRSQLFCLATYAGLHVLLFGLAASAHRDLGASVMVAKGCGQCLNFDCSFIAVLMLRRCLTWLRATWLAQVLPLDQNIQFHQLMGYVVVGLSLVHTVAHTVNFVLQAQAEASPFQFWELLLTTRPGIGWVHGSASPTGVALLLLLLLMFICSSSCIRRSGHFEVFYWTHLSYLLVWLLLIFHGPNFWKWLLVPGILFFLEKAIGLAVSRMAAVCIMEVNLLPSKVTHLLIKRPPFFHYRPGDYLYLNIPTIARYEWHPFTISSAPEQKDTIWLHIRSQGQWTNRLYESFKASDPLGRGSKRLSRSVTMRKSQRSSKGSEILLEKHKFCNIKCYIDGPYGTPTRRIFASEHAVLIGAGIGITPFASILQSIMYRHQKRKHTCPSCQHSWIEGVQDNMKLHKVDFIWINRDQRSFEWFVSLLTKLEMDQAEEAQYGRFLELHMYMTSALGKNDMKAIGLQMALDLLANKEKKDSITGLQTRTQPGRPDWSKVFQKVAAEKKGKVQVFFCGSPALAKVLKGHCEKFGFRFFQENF
Protocol: (§1) To test whether the inhibitory effect of NoxA1ds is specific to Nox1, the effect of NoxA1ds was tested on cells expressing Nox2, Nox4, and Nox5 as well as on purified xanthine oxidase enzyme. To test the effect on Nox2, production of O2^− was measured by the reduction of cytochrome c by cell lysates from COS cells transiently transfected with the Nox2 oxidase, stimulated with LiDS, and the treated with increasing concentrations of NoxA1ds (from 0.1 nM to 10,000 nM). Similarly, production of H2O2 was measured by Amplex red fluorescence by COS cells transiently transfected with the Nox4 oxidase and treated with increasing concentrations of NoxA1ds (from 100 nM to 10,000 nM). Production of O2^− was also measured by the reduction of cytochrome c by cell lysates from HEK293 cells stably transfected with the Nox5 oxidase stimulated with Ca^2+, and treated with increasing concentrations of NoxA1ds (from 0.1 nM to 10,000 nM). Finally, production of O2^− was measured by Electron Paramagnetic Resonance from pure xanthine oxidase enzyme preparations, stimulated with hypoxanthine and treated with increasing concentrations of NoxA1ds (from 0.1 nM to 10,000 nM).

[2] = system: xanthine oxidase; experiment: O2- production by pure xanthine oxidase stimulated with hypoxanthine (EPR); format: biochemical; details: 0.1 nM to 10,000 nM
Protocol: as §1

[3] = system: HT-29 colon adenocarcinoma cells; experiment: O2- production by HT-29 cells (SOD inhibitable reduction of cytochrome c); format: cell-based; details: increasing doses
[4] = system: rat aortic smooth muscle cells; experiment: O2- production by rat aortic smooth muscle cells under static conditions or cyclic stretch; format: cell-based
Protocol: FIG. 8. NoxA1ds attenuates stretch-induced O2^− production: Effect of NoxA1ds on O2^− production by rat aortic smooth muscle cells subjected to static conditions or cyclic stretch (10%, 1 Hz, 24 hrs). NoxA1ds was added 4 hrs before measuring O2^− production.
Cyclic stretching of vascular cells occurs as a result of the pulsatile nature of blood flow but is increased in hypertensive states, and has been associated with generation of ROS and possibly cell proliferation. […] At the end of 24 hrs, cells were lysed and membrane fraction O2^− production was measured using cytochrome c.

[5] = system: HPAEC constitutively expressing Nox1; experiment: Angiotensin II-induced O2- production by HPAEC (cytochrome c); format: cell-based, human; details: 100 nM angiotensin II, 10 μM peptide, 1 hr
Protocol: FIG. 10. O2^− Production by human pulmonary artery endothelial cells (“HPAEC”) which were either (i) untreated; (ii) treated with 100 nM angiotensin II; (iii) treated with 100 nM angiotensin II and 10 μM NoxA1ds; or (iv) treated with 100 nM angiotensin II and 10 μM SCRMB peptide. Results represent mean±SEM, n=5-9, 2-3 separate experiments.
In further studies, HPAEC constitutively expressing Nox1 were treated with vehicle or Angiotensin II (AngII, one mediator of hypertension) alone or in combination with NoxA1ds, or SCRMB for 1 hr. O2^− production was then measured via reduction of cytochrome c.

H-EPVDALGKAKV-NH2 [NoxA1ds, [NH3^+]-EPVDALGKAKV-[CONH2]]
Inhibitory effect on Nox5 O2- production [1]: did not exhibit a significant inhibitory effect
Inhibitory effect on xanthine oxidase O2- production [2]: did not exhibit a significant inhibitory effect
Inhibition of O2- production by HT-29 cells [3]: dose-dependent inhibition
Cyclic stretch-induced O2- production ([4]; cyclic stretch 10%, 1 Hz, 24 hrs, peptide added at t=20 hrs (4 hrs before measuring)): completely abrogated; also recorded: inhibited
O2- production under static conditions ([4]; static, 10 μM): negligible effect
AngII-induced O2- production [5]: completely inhibited
